The values that follow come from patent US20030158204A1, “Diamino phenothiazine derivatives and composition comprising same” (priority 2000, published 2003).

Data set [1] is described as follows: Hydrophilicity / water solubility. The settings on record: qualitative. The format is physicochemical. As for the experimental part: These derivatives more or less have the properties of methylene blue, are hydrosoluble, active by the enteral and parenteral route (IV, SC, etc.) and they never give rise to acute or chronic toxicity nor undesirable effects, at doses comprised between 0.05 mg/Kg and 40 mg/Kg.

Data set [2] in a line: Half life of the compound. Particulars: qualitative.
The test system of data set [3] is pernicious attacks resistant to quinine (malaria). The settings on record: IV route; cited from earlier work.
The conditions of data set [4]: used externally and internally; cited from earlier work.

Molecules are shown by their SMILES.

Consider `CNc1ccc2nc3c(C)cc(N(C)C)cc3[s+]c2c1C` [Example 1, 4-5 dimethyl-7-(dimethylamino)-3(methylimino)-3H phenothiazine], for which the hydrophilicity entry in data set [1] is “decreased hydrophilicity”.

On to `CNc1ccc2nc3c(Cl)cc(N(C)C)cc3[s+]c2c1C` [Example 2], for which, in data set [1], the hydrophilicity entry is on record as “more hydrophilic than the reference daughter molecule”. Moreover, the half life result in data set [2] was “considerably increases the half life”.

For the molecule `CNc1ccc2nc3c(O)cc(N(C)C)cc3[s+]c2c1O` [Example 4], in data set [1], the hydrophilicity result is recorded as “very hydrophilic”. The half life result in data set [2] was “short half life”.

As for `CN(C)c1ccc2nc3ccc(=[N+](C)C)cc-3sc2c1` [Methylene blue, methylene blue], the “activity on pernicious attacks resistant to quinine” value in data set [3] is listed as “active”. Also, the antiseptic activity entry in data set [4] is given as “moderate”.
